Results from US20240398811A1, “PRC2 INHIBITORS FOR USE IN TREATING BLOOD DISORDERS” (ORIC Pharmaceuticals, Inc., priority 2021, published 2024).

Each compound was assayed against purified human, His-tagged PRC2 complex (Homo sapiens (Human), UniProt O75530) (assay: Hot Spot HMT assay, inhibition of PRC2 enzymatic activity). Settings: 10 nM PRC2 complex, 1 μM 3H-SAM, core histone H3, 10-point dose-response.
Type: biochemical
Excerpt: The assay uses purified human, His-tagged PRC2 complex, including N-terminal His-tagged EZH2 enzyme, N-terminal Flag-tagged embryonic ectoderm development protein (EED), N-terminal His-tagged suppressor of zeste 12 (SUZ12), N-terminal His-tagged AEBP2, and N-terminal His-tagged RbAp48. In this assay, the transfer of the tritiated methyl group from radiolabeled S-adenosyl methionine (SAM) to purified core histone protein by EZH2 is quantitated after filtration to determine the activity of the core PRC2 complex in the presence and absence of compound.
The initial starting concentration for the serial dilutions of each compound was 1.0 μM. […] SAH (S-(5-adenosyl)-L-homocysteine) was used as a positive control for assay validation.
An aliquot of each serial dilution of test compound was added to deep 384 well plate using Acoustic Technology instrument (Echo 550, LabCyte) containing reaction buffer (50 mM Tris-HCl (pH 8.)), 0.01% Brij35, 1 mM EDTA, 1 mM DTT, 1 mM PMSF and 1% DMSO), 10 nM purified PRC2 complex and 0.05 mg/ml core histone H3 in a 5 μl volume. The reaction was mixed gently and then pre-incubated for 20 min at 30° C. The enzymatic reaction was initiated by adding 1 μM S-Adenosyl-L-[methyl-^3H]methionine and incubated for 1 hr at 30° C. After 1 hr, the reaction product was detected using a filter binding method and the amount of tritiated H3 core histone was quantitated using a scintillation counter. […] Key: A=<100 nM; B=>100 nM-<500 nM; and C=>500 nM.

Chain of purified human, His-tagged PRC2 complex (O75530 whole entry): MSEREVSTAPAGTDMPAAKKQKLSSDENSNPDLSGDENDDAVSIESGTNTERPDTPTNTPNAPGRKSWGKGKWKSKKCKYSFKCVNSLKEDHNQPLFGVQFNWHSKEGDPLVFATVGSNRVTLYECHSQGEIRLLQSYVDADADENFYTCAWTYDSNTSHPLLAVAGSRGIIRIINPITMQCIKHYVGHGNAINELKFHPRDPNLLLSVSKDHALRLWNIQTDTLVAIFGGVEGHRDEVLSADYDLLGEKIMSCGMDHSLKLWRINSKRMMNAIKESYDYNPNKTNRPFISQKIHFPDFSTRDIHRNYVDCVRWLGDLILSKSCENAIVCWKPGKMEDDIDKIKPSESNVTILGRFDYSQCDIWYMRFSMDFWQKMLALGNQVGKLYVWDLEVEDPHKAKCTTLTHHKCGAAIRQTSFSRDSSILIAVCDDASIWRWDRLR
Chain of purified human, His-tagged PRC2 complex (Q15910 whole entry partner): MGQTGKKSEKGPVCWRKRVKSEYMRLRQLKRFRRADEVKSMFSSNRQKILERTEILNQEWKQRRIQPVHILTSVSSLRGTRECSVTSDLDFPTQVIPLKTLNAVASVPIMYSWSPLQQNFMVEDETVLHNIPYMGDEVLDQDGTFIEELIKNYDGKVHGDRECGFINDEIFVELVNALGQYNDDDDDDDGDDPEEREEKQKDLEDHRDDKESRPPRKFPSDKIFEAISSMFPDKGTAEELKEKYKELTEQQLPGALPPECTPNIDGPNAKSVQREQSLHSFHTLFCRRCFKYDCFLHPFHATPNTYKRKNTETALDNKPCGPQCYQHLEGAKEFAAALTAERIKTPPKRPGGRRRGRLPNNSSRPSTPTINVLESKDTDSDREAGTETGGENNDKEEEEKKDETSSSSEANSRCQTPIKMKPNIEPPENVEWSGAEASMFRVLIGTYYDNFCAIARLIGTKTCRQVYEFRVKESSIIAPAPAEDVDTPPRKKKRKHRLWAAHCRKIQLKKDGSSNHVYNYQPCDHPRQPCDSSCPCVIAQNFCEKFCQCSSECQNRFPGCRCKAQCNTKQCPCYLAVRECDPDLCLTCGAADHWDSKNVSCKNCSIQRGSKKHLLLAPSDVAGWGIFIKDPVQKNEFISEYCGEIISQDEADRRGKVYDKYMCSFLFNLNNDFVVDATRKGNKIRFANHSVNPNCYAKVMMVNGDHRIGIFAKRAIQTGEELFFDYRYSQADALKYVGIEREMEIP
Chain of purified human, His-tagged PRC2 complex (Q15022 whole entry partner): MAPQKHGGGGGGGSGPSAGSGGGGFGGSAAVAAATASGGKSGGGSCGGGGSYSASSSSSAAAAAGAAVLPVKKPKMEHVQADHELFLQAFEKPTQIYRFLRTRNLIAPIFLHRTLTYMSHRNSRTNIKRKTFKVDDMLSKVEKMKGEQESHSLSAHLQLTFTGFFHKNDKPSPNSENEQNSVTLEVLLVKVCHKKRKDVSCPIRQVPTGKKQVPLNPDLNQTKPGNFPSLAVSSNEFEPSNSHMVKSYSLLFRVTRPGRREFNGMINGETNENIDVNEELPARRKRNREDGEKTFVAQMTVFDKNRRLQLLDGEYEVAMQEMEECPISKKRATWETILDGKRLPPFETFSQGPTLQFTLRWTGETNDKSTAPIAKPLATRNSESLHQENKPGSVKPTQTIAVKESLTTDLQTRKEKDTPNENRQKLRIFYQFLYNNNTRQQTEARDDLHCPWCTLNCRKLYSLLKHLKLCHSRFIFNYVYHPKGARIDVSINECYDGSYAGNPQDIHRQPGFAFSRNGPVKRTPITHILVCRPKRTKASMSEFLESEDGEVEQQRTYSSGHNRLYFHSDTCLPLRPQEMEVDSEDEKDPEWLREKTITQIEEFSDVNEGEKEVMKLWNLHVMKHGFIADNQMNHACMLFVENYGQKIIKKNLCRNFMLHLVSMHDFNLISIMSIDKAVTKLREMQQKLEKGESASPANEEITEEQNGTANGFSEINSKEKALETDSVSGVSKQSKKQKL
Chain of purified human, His-tagged PRC2 complex (Q6ZN18 whole entry partner): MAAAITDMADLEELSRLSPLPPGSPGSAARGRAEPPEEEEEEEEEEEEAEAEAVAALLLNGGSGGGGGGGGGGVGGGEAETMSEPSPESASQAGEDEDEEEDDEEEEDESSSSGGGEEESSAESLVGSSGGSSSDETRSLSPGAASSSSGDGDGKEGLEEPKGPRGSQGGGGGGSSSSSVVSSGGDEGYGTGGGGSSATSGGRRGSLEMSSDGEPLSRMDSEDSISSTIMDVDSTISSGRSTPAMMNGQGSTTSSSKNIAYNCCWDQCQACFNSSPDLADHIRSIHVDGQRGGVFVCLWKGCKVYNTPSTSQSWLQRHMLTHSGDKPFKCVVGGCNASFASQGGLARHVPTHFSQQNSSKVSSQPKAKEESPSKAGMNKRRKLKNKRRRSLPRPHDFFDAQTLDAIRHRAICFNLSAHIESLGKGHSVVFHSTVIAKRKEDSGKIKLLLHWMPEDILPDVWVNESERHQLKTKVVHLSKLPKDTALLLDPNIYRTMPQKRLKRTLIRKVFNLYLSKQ
Chain of purified human, His-tagged PRC2 complex (Q09028 whole entry partner): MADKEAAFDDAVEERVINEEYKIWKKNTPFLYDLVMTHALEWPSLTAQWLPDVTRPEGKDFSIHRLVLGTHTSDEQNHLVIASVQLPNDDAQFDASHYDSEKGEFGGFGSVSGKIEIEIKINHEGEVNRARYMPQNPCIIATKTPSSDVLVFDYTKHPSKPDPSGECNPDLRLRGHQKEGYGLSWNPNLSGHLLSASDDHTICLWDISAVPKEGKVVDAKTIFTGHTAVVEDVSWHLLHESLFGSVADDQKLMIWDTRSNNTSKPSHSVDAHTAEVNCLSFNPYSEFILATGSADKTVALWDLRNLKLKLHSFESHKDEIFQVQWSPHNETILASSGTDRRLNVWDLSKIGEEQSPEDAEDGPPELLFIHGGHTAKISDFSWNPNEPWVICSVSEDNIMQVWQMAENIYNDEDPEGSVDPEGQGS

| Compound | IC50 [nM] |
| --- | --- |
| CN(C)C(=O)c1ccc(-c2cnc(NCc3c(F)ccc4c3CCO4)n3cc(C#N)nc23)cc1F [Example 36, 4-(2-cyano-5-(((5-fluoro-2,3-dihydrobenzofuran-4-yl)methyl)amino)imidazo[1,2-c]pyrimidin-8-yl)-2-fluoro-N,N-dimethylbenzamide] | < 100 |
| CN(C)C(=O)c1cc(F)c(-c2cnc(NCc3c(F)ccc4c3CCO4)n3cc(C#N)nc23)cc1F [Example 38, 4-(2-cyano-5-(((5-fluoro-2,3-dihydrobenzofuran-4-yl)methyl)amino)imidazo[1,2-c]pyrimidin-8-yl)-2,5-difluoro-N,N-dimethylbenzamide] | < 100 |
| CN(C)Cc1cc(F)c(-c2cnc(NCc3c(F)ccc4c3CCO4)n3cc(C#N)nc23)cc1F [Example 39, 8-(4-((dimethylamino)methyl)-2,5-difluorophenyl)-5-(((5-fluoro-2,3-dihydrobenzofuran-4-yl)methyl)amino)imidazo[1,2-c]pyrimidine-2-carbonitrile] | < 100 |
| Cc1cc(-c2cnc(NCc3c(F)ccc4c3CCO4)n3cc(C#N)nc23)cnn1 [Example 41, 5-(((5-fluoro-2,3-dihydrobenzofuran-4-yl)methyl)amino)-8-(6-methylpyridazin-4-yl)imidazo[1,2-c]pyrimidine-2-carbonitrile] | < 100 |
| Cc1cc(C(=O)N(C)C)c(F)cc1-c1cnc(NCc2c(F)ccc3c2CCO3)n2cc(C#N)nc12 [Example 43, 4-(2-cyano-5-(((5-fluoro-2,3-dihydrobenzofuran-4-yl)methyl)amino)imidazo[1,2-c]pyrimidin-8-yl)-2-fluoro-N,N,5-trimethylbenzamide] | < 100 |

Further lines, results first:

| IC50 [nM] | Compound |
| --- | --- |
| < 100 | CN(C)C(=O)c1ccc(-c2cnc(NCc3c(F)ccc4c3CCO4)n3cc(C#N)nc23)c(Cl)c1 [Example 31, 3-chloro-4-(2-cyano-5-(((5-fluoro-2,3-dihydrobenzofuran-4-yl)methyl)amino)imidazo[1,2-c]pyrimidin-8-yl)-N,N-dimethylbenzamide] |
| < 100 | CN(C)Cc1ccc(-c2cnc(NCc3c(F)ccc4c3CCO4)n3cc(C#N)nc23)c(Cl)c1 [Example 33, 8-(2-chloro-4-((dimethylamino)methyl)phenyl)-5-(((5-fluoro-2,3-dihydrobenzofuran-4-yl)methyl)amino)imidazo[1,2-c]pyrimidine-2-carbonitrile] |
| < 100 | CN(C)C(=O)c1ccc(-c2cnc(NCc3c(F)ccc4c3CCO4)n3cc(C#N)nc23)c(Cl)c1F [Example 34, 3-chloro-4-(2-cyano-5-(((5-fluoro-2,3-dihydrobenzofuran-4-yl)methyl)amino)imidazo[1,2-c]pyrimidin-8-yl)-2-fluoro-N,N-dimethylbenzamide] |
| < 100 | CN(C)C(=O)c1cc(Cl)c(-c2cnc(NCc3c(F)ccc4c3CCO4)n3cc(C#N)nc23)cc1F [Example 35, 5-chloro-4-(2-cyano-5-(((5-fluoro-2,3-dihydrobenzofuran-4-yl)methyl)amino)imidazo[1,2-c]pyrimidin-8-yl)-2-fluoro-N,N-dimethylbenzamide] |
| < 100 | CN(C)Cc1ccc(-c2cnc(NCc3c(F)ccc4c3CCO4)n3cc(C#N)nc23)c(F)c1F [Example 37, 8-(4-((dimethylamino)methyl)-2,3-difluorophenyl)-5-(((5-fluoro-2,3-dihydrobenzofuran-4-yl)methyl)amino)imidazo[1,2-c]pyrimidine-2-carbonitrile] |
| < 100 | CN(C)Cc1ncc(-c2cnc(NCc3c(F)ccc4c3CCO4)n3cc(C#N)nc23)cc1F [Example 40, 8-(6-((dimethylamino)methyl)-5-fluoropyridin-3-yl)-5-(((5-fluoro-2,3-dihydrobenzofuran-4-yl)methyl)amino)imidazo[1,2-c]pyrimidine-2-carbonitrile] |
| < 100 | CN(C)C(=O)c1ccc(-c2cnc(NCc3c(F)ccc4c3CCO4)n3cc(C#N)nc23)c(F)c1F [Example 42, 4-(2-cyano-5-(((5-fluoro-2,3-dihydrobenzofuran-4-yl)methyl)amino)imidazo[1,2-c]pyrimidin-8-yl)-2,3-difluoro-N,N-dimethylbenzamide] |
